Reference: patent US20240122180A1, “FUNGICIDAL HALOMETHYL KETONES AND HYDRATES AND THEIR MIXTURES” (FMC Corporation, priority 2020, published 2024)

What was measured:
[1] = tested on: Phakopsora pachyrhizi (the causal agent of Asian soybean rust); assay: Test A: preventive spray on soybean seedlings, visual disease rating (100 = 100% control; * 50 ppm, ** 10 ppm, *** 250 ppm); type: in vivo; conditions: 100 = 100% disease control
Procedure, shortened: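 Preventive test: one day after spraying compound (acetone/water suspension, 250 ppm PEG400), seedlings received rust spore inoculum, 24 h in saturated air then 8 days in growth chamber, both at 22 °C. Disease control scored visually, 100 = complete, 0 = none, relative to untreated controls.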

[2] = tested on: Puccinia recondita f. sp. tritici (the causal agent of wheat leaf rust); assay: Test B: preventive spray on wheat seedlings, disease rating (100 = 100% control; * 50 ppm, ** 10 ppm, *** 250 ppm); type: in vivo; conditions: 100 = 100% disease control
Procedure, shortened: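 Preventive test: Puccinia recondita f. sp. tritici spores were inoculated one day after run-off spraying of wheat seedlings with test suspension (acetone/water 50/50, 250 ppm PEG400). After 24 h in saturated air and 6 days in a growth chamber, both at 20° C, control was scored 0–100 versus untreated plants.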

[3] = 10 ppm test suspension, soybean seedlings
[4] = 10 ppm test suspension, wheat seedlings
[5] = 50 ppm test suspension, 0 = no control
[6] = 50 ppm test suspension, soybean seedlings
[7] = 50 ppm test suspension, wheat seedlings
[8] = 10 ppm test suspension, 0 = no control
[9] = Phakopsora pachyrhizi, 10 ppm test suspension, 0 = no control
[10] = Puccinia recondita, 10 ppm test suspension, 0 = no control

Structure (SMILES) | Test A disease control rating [1, 3] [%] | Test B disease control rating [2, 4] [%] | also measured
CC(C)CS(=O)(=O)NCc1ccc(OCC2(C(F)(F)F)OCCO2)cc1 [compound 76] | 0 | 0 | –
N#CCOC(=O)c1cnn(Cc2ccc(OCC3(C(F)(F)F)OCCO3)cc2)c1 [compound 172] | 100 | 0 | –
CCCC(=O)N(Cc1ccc(OCC2(C(F)(F)F)OCCO2)cc1)OC [compound 237] | 97 | 0 | –
CCOC(=O)c1cnn(Cc2ccc(O/C=C(\OCC)C(F)(F)F)c(Br)c2)c1 [compound 344] | – | – | Test A disease control rating [1, 5]: 100%; Test B disease control rating [2, 5]: 0%
CCOC(=O)c1cnn(Cc2ccc(O/C=C(\OC)C(F)(F)F)cc2)c1 [compound 53] | – | – | Test A disease control rating [1, 6]: 100%; Test B disease control rating [2, 7]: 67%
C=CC(F)(F)OC(=O)c1cnn(Cc2ccc(OCC(O)(O)C(F)(F)F)cc2)c1 [compound 38] | 97 | 89 | –
CCOC(=O)c1cnn(C(C)c2ccc(OCC(O)(O)C(F)(F)F)cc2)c1 (stereo not shown) [compound 35] | 99 | 32 | –
CCO/C(=C\Oc1ccc(S(=O)(=O)N(C)C)cc1)C(F)(F)F [compound 61] | 0 | 0 | –
CCO/C(=C\Oc1ccc(Cn2cncc2C(=O)OC)cc1)C(F)(F)F [compound 85] | 89 | 0 | –
CCOC(=O)c1cnn(-c2cccc(O/C=C(\OCC)C(F)(F)F)c2)c1 [compound 317] | – | – | Test A disease control rating [1, 5]: 0%; Test B disease control rating [2, 5]: 0%
C=C(C)COC(=O)c1ccn(Cc2ccc(O/C=C(\OCC)C(F)(F)F)cc2)n1 [compound 358] | – | – | Test A disease control rating [1, 8]: 100%; Test B disease control rating [2, 8]: 0%
O=C(NCC(F)(F)F)c1cnc(Cc2ccc(OCC(O)(O)C(F)(F)F)cc2)o1 [compound 274] | – | – | Test A disease control rating [1, 8]: 48%; Test B disease control rating [2, 8]: 0%
CCOC(=COc1ccc(Cn2ccc(C(=O)OC(C)(C)C)n2)cc1)C(F)(F)F [compound 253] | 0 | 0 | –
CCOC(=COc1ccc(CN2CCC(C#N)CC2)cc1)C(F)(F)F [compound 311] | – | – | Test A disease control rating [1, 8]: 0%; Test B disease control rating [2, 8]: 0%
CCCCCCOC(=O)c1cnn(Cc2ccc(OCC(O)(O)C(F)(F)F)cc2)c1 [compound 48] | – | – | Test A disease control rating [1, 6]: 100%; Test B disease control rating [2, 7]: 91%
COC(=O)c1ccc(OCC2(C(F)(F)F)OCCO2)cc1 [compound 189] | 0 | 0 | –
CCO/C(=C\Oc1ccc(CN2OCC(C)(C)C2=O)cc1)C(F)(F)F [compound 92] | 0 | 0 | –
CCOC(=O)c1cnn(COc2ccc(O/C=C(\OCC)C(F)(F)F)cc2F)c1 [compound 425] | – | – | pest or weed control at 10 ppm [1, 9]: 100%; pest or weed control at 10 ppm [2, 10]: 0%
CCO/C(=C\Oc1ccc(Cn2ncnc2SC)cc1)C(F)(F)F [compound 260] | – | – | Test A disease control rating [1, 8]: 0%; Test B disease control rating [2, 8]: 0%

Structure (SMILES) | Test A disease control rating [1, 3] [%] | Test B disease control rating [2, 4] [%] | also measured
CCOC(=O)c1cnn(Cc2ccc(C/C=C(\OCC)C(F)(F)F)cc2)c1 [compound 140] | 98 | 23 | –
OC(O)(COc1cccc(CCl)c1)C(F)(F)F [compound 423] | – | – | pest or weed control at 50 ppm ([1]; Phakopsora pachyrhizi, 50 ppm test suspension, 0 = no control): 87%; pest or weed control at 50 ppm ([2]; Puccinia recondita, 50 ppm test suspension, 0 = no control): 80%
CCOC(=O)c1ccc2c(cnn2Cc2ccc(OCC3(C(F)(F)F)OCCO3)cc2)c1 [compound 160] | 13 | 0 | –
CCOC(=O)c1cnn(CCCc2ccc(O/C=C(\OCC)C(F)(F)F)cc2)c1 [compound 294] | – | – | Test A disease control rating [1, 8]: 100%; Test B disease control rating [2, 8]: 0%
CCOC(=O)c1cnn(C(C)c2ccc(OCC3(C(F)(F)F)OCCO3)cc2)c1 (racemic) [compound 26] | 99 | 0 | –
CCO/C(=C\Oc1ccc(C(=O)OC(C)C)cc1)C(F)(F)F [compound 73] | 0 | 0 | –
CCOC(=O)c1csc(Cc2ccc(OCC(O)(O)C(F)(F)F)cc2)n1 [Compound 136] | 98 | 83 | –
CCO/C(=C\Oc1ccc(CNC(=O)C(C)OC)cc1)C(F)(F)F (stereo not shown) [compound 114] | – | – | Test A disease control rating [1, 6]: 44%; Test B disease control rating [2, 7]: 0%
CC(C)C(=O)NCc1ccc(OCC2(C(F)(F)F)OCCO2)cc1 [compound 175] | 0 | 0 | –
CCO/C(=C\Oc1cccc(Cn2cc(C(=O)OCC3CC3)cn2)c1)C(F)(F)F [compound 341] | – | – | Test A disease control rating [1, 8]: 100%; Test B disease control rating [2, 8]: 0%
CCOC(=O)C1=NOC(c2ccc(O/C=C(\OCC)C(F)(F)F)cc2)C1 (stereo not shown) [compound 278] | – | – | Test A disease control rating [1, 5]: 94%; Test B disease control rating [2, 5]: 0%
CCOC(=COc1ccc(Cn2nccc2C(=O)OC(C)(C)C)cc1)C(F)(F)F [compound 252] | 0 | 0 | –
CCO/C(=C\Oc1ccc(CNS(=O)(=O)CC)cc1)C(F)(F)F [compound 149] | 0 | 0 | –
CCCO/C(=C\Oc1ccc(Cn2cc(C(=O)OCC)cn2)cc1)C(F)(F)F [compound 65] | 100 | 0 | –
CON(Cc1ccc(OCC2(C(F)(F)F)OCCO2)cc1)C(=O)C(C)C [compound 235] | 97 | 0 | –
CCO/C(=C\Oc1ccc(CN2C(=O)c3ccccc3C2=O)cc1)C(F)(F)F [compound 184] | 0 | 0 | –
FC(F)(F)C1(COc2ccc(-c3ccccc3)cc2)OCCO1 [compound 190] | 0 | 0 | –
CCOC(=O)c1cnn(Cc2cc(O/C=C(\OCC)C(F)(F)F)ccc2C)c1 [compound 451] | – | – | Test A disease control rating [1, 5]: 0%; Test B disease control rating [2, 5]: 0%
CCO/C(=C\Oc1ccc(Cc2ccnc(OCC(F)F)n2)cc1)C(F)(F)F [compound 306] | – | – | Test A disease control rating [1, 5]: 96%; Test B disease control rating [2, 5]: 68%

Structure (SMILES) | Test A disease control rating [1, 3] [%] | Test B disease control rating [2, 4] [%] | also measured
CCCOC(=O)c1cnn(Cc2ccc(OCC(O)(O)C(F)(F)F)cc2)c1 [compound 42] | 99 | 85 | –
CCO/C(=C\Oc1ccc(CN)cc1)C(F)(F)F [compound 110] | – | – | Test A disease control rating [1, 6]: 79%; Test B disease control rating [2, 7]: 0%
CCOC(=COc1ccc(Cn2ccc(C(=O)OC)n2)cc1)C(F)(F)F [compound 251] | 100 | 9 | –
CCO/C(=C\Oc1ccc(Cn2cnc(C(=O)OC)n2)cc1)C(F)(F)F [compound 123] | 98 | 0 | –
CCO/C(=C\Oc1ccc(S(C)(=O)=O)cc1)C(F)(F)F [compound 60] | 0 | 0 | –
CCNC(=O)N1CC(c2ccc(OC=C(OCC)C(F)(F)F)cc2)C1 [compound 412] | – | – | Test A disease control rating [1, 5]: 100%; Test B disease control rating [2, 5]: 0%
CCOC(=COc1ccc(Cc2ccnc(SC)n2)cc1)C(F)(F)F [compound 308] | – | – | Test A disease control rating [1, 5]: 25%; Test B disease control rating [2, 5]: 0%
CCOC(=O)Cc1nnnn1Cc1ccc(O/C=C(\OCC)C(F)(F)F)cc1 [compound 84] | 0 | 0 | –
CCO/C(=C\Oc1ccc(Cn2cc(C(=O)OC(C)(C)C)cn2)cc1)C(F)(F)F [compound 89] | 0 | 0 | –
CN(C)S(=O)(=O)c1ccc(OCC(O)(O)C(F)(F)F)cc1 [compound 34] | 0 | 80 | –
CCOC(=O)c1ccn(Cc2cc(C)cc(O/C=C(\OCC)C(F)(F)F)c2)n1 [compound 405] | – | – | Test A disease control rating [1, 5]: 0%; Test B disease control rating [2, 5]: 0%
CN(C)C(=O)C1=NOC(c2ccc(OCC(O)(O)C(F)(F)F)cc2)C1 (stereo not shown) [compound 41] | 92 | 23 | –
CCOC(=COc1ccc([N+](=O)[O-])cc1)C(F)(F)F [compound 279] | – | – | Test A disease control rating [1, 5]: 0%; Test B disease control rating [2, 5]: 0%
CS(=O)(=O)c1nccc(Cc2ccc(OCC3(C(F)(F)F)OCCO3)cc2)n1 [compound 282] | – | – | Test A disease control rating [1, 5]: 0%; Test B disease control rating [2, 5]: 0%
CCO/C(=C\Oc1cccc(Cc2nc(C(=O)NCC(F)F)cs2)c1)C(F)(F)F [compound 398] | – | – | pest or weed control at 10 ppm [1, 9]: 0%; pest or weed control at 10 ppm [2, 10]: 0%
C#CCO/C(=C\Oc1ccc(Cn2cc(C(=O)OCC)cn2)cc1)C(F)(F)F [compound 56] | 38 | 0 | –
C#CCOC(=O)c1cnn(Cc2cccc(O/C=C(\OCC)C(F)(F)F)c2)c1 [compound 336] | – | – | Test A disease control rating [1, 8]: 100%; Test B disease control rating [2, 8]: 0%
CCO/C(=C\Oc1cccc(Cn2cc(C(=O)OCCC(C)C)cn2)c1)C(F)(F)F [compound 350] | – | – | Test A disease control rating [1, 8]: 100%; Test B disease control rating [2, 8]: 0%
